According to ChEMBL document CHEMBL1158504, “Cell permeability of Py-Im-polyamide-fluorescein conjugates: Influence of molecular size and Py/Im content” (Bioorg Med Chem, 2010):

Assays:
Assay type in all cases: ADME, cell-based; call rule not given here
HEK293 [1] = assay: Cellular uptake in HEK293 cells assessed as labeled cells at 1 uM after 24 hrs by flow cytometry; conditions: human, hek293, 24 h
HEK293 [2] = assay: Cellular uptake in HEK293 cells assessed as localization to nucleus at 1 uM after 24 hrs by fluorescence microscopy; conditions: human, hek293, 24 h
MCF7 [3] = assay: Cellular uptake in human MCF7 cells assessed as increase in labeled cells at 1 uM after 24 hrs by flow cytometry; conditions: mcf7, 24 h
HEK293 [4] = assay: Cellular uptake in HEK293 cells assessed as localization to cytoplasm at 1 uM after 24 hrs by fluorescence microscopy; conditions: human, hek293, 24 h
MCF7 [5] = assay: Cellular uptake in human MCF7 cells assessed as labeled cells at 1 uM after 24 hrs by flow cytometry; conditions: mcf7, 24 h
HEK293 [6] = assay: Cellular uptake in HEK293 cells assessed as intracellular localization at 1 uM after 24 hrs by fluorescence microscopy; conditions: human, hek293, 24 h

Compound | Drug uptake (HEK293 [1]) [%] | also measured
CN(C)CCCNC(=O)c1cc(NC(=O)c2cc(NC(=O)c3cc(NC(=O)CCNc4cc(NC(=O)c5cc(NC(=O)c6cc(NC(=O)CCNc7cc(NC(=O)c8cc(NC(=O)c9cc(NC(=O)CCNc%10cc(NC(=O)c%11cc(NC(=O)c%12cc(NC(=O)CCNc%13cc(NC(=O)c%14cc(NC(=O)c%15cc(NC(=O)CCNC(=S)Nc%16ccc(-c%17c%18ccc(=O)cc-%18oc%18cc(O)ccc%17%18)c(C(=O)O)c%16)cn%15C)cn%14C)cn%13C)cn%12C)cn%11C)cn%10C)cn9C)cn8C)cn7C)cn6C)cn5C)cn4C)cn3C)cn2C)cn1C | > 82 | Drug uptake (HEK293 [4]): Active
CN(C)CCCNC(=O)c1cc(NC(=O)c2cc(NC(=O)c3cc(NC(=O)CCCNC(=O)c4cc(NC(=O)c5cc(NC(=O)c6cc(NC(=O)CCNC(=S)Nc7ccc(-c8c9ccc(=O)cc-9oc9cc(O)ccc89)c(C(=O)O)c7)cn6C)cn5C)cn4C)cn3C)cn2C)cn1C |  | Drug uptake (MCF7 [5]): > 90%
CN(C)CCCNC(=O)c1cc(NC(=O)c2cc(NC(=O)c3cc(NC(=O)CCNC(=S)Nc4ccc(-c5c6ccc(=O)cc-6oc6cc(O)ccc56)c(C(=O)O)c4)cn3C)cn2C)cn1C | 53 | 
CN(C)CCCNC(=O)c1cc(NC(=O)c2cc(NC(=O)c3cc(NC(=O)CCNc4cc(NC(=O)c5cc(NC(=O)c6cc(NC(=O)CCNc7cc(NC(=O)c8cc(NC(=O)c9cc(NC(=O)CCNc%10cc(NC(=O)c%11cc(NC(=O)c%12cc(NC(=O)CCNC(=S)Nc%13ccc(-c%14c%15ccc(=O)cc-%15oc%15cc(O)ccc%14%15)c(C(=O)O)c%13)cn%12C)cn%11C)cn%10C)cn9C)cn8C)cn7C)cn6C)cn5C)cn4C)cn3C)cn2C)cn1C | > 82 | 
CN(C)CCCNC(=O)c1cc(NC(=O)c2cc(NC(=O)c3cc(NC(=O)CCNc4cc(NC(=O)c5cc(NC(=O)c6cc(NC(=O)CCNC(=S)Nc7ccc(-c8c9ccc(=O)cc-9oc9cc(O)ccc89)c(C(=O)O)c7)cn6C)cn5C)cn4C)cn3C)cn2C)cn1C | > 82 | Drug uptake (HEK293 [2]): Active; Drug uptake (MCF7 [3]): Active
CN(C)CCCNC(=O)c1cc(NC(=O)c2cc(NC(=O)c3cc(NC(=O)CCNc4cc(NC(=O)c5cc(NC(=O)c6cc(NC(=O)CCNc7cc(NC(=O)c8cc(NC(=O)c9cc(NC(=O)CCNc%10cc(NC(=O)c%11cc(NC(=O)c%12cc(NC(=O)CCNc%13cc(NC(=O)c%14cc(NC(=O)c%15cc(NC(=O)CCNc%16cc(NC(=O)c%17cc(NC(=O)c%18cc(NC(=O)CCNC(=S)Nc%19ccc(-c%20c%21ccc(=O)cc-%21oc%21cc(O)ccc%20%21)c(C(=O)O)c%19)cn%18C)cn%17C)cn%16C)cn%15C)cn%14C)cn%13C)cn%12C)cn%11C)cn%10C)cn9C)cn8C)cn7C)cn6C)cn5C)cn4C)cn3C)cn2C)cn1C | > 82 | Drug uptake (HEK293 [4]): Active; Drug uptake (HEK293 [6]): Active

Now from value to molecule, other results behind:

Drug uptake (HEK293 [1]) [%] | Compound | also measured
39 | CN(C)CCCNC(=O)c1nc(NC(=O)c2nc(NC(=O)c3nc(NC(=O)CCNc4nc(NC(=O)c5nc(NC(=O)c6nc(NC(=O)CCNC(=S)Nc7ccc(-c8c9ccc(=O)cc-9oc9cc(O)ccc89)c(C(=O)O)c7)cn6C)cn5C)cn4C)cn3C)cn2C)cn1C | Drug uptake (HEK293 [2]): Not Active; Drug uptake (MCF7 [3]): Not Active
3 | CN(C)CCCNC(=O)c1nc(NC(=O)c2nc(NC(=O)c3nc(NC(=O)CCNc4nc(NC(=O)c5nc(NC(=O)c6nc(NC(=O)CCNc7nc(NC(=O)c8nc(NC(=O)c9nc(NC(=O)CCNC(=S)Nc%10ccc(-c%11c%12ccc(=O)cc-%12oc%12cc(O)ccc%11%12)c(C(=O)O)c%10)cn9C)cn8C)cn7C)cn6C)cn5C)cn4C)cn3C)cn2C)cn1C | 
53 | CN(C)CCCNC(=O)c1nc(NC(=O)c2nc(NC(=O)c3nc(NC(=O)CCNC(=S)Nc4ccc(-c5c6ccc(=O)cc-6oc6cc(O)ccc56)c(C(=O)O)c4)cn3C)cn2C)cn1C | 
> 82 | CN(C)CCCNC(=O)c1cc(NC(=O)c2cc(NC(=O)c3cc(NC(=O)CCNc4cc(NC(=O)c5cc(NC(=O)c6cc(NC(=O)CCNc7cc(NC(=O)c8cc(NC(=O)c9cc(NC(=O)CCNC(=S)Nc%10ccc(-c%11c%12ccc(=O)cc-%12oc%12cc(O)ccc%11%12)c(C(=O)O)c%10)cn9C)cn8C)cn7C)cn6C)cn5C)cn4C)cn3C)cn2C)cn1C | Drug uptake (HEK293 [2]): Active
1.1 | CN(C)CCCNC(=O)c1nc(NC(=O)c2nc(NC(=O)c3nc(NC(=O)CCNc4nc(NC(=O)c5nc(NC(=O)c6nc(NC(=O)CCNc7nc(NC(=O)c8nc(NC(=O)c9nc(NC(=O)CCNc%10nc(NC(=O)c%11nc(NC(=O)c%12nc(NC(=O)CCNC(=S)Nc%13ccc(-c%14c%15ccc(=O)cc-%15oc%15cc(O)ccc%14%15)c(C(=O)O)c%13)cn%12C)cn%11C)cn%10C)cn9C)cn8C)cn7C)cn6C)cn5C)cn4C)cn3C)cn2C)cn1C | 
